Some test systems named below: A549 NSCLC; MALME-3M melanoma; MOLT-4 leukemia; NCI/ADR-RES ovarian; SF-295 CNS; SK-MEL-2 melanoma; SK-MEL-5 melanoma; SNB-19 CNS; SR leukemia; SW-620 colon.
Holding throughout (assay): NCI tumour cell line growth inhibition, 48 h

From PubChem BioAssay (NCI) come the findings set out here.

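Five concentrations, 48 hours, 96-well plates. TGI is the concentration that stops growth completely.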

Regarding `O=C1NC(=O)/C(=C/c2ccc(S(=O)(=O)N/N=C/c3ccc(Cl)cc3)cc2)N1`, the TGI in the test with A549 NSCLC, in the test with MALME-3M melanoma, in the test on MOLT-4 leukemia, in the test with NCI/ADR-RES ovarian, in the test on SF-295 CNS and in the test with SK-MEL-2 melanoma was greater than 100 µM each time. For the same compound, the TGI in the test with SK-MEL-5 melanoma, with SNB-19 CNS, in the test on SR leukemia and with SW-620 colon was greater than 100 µM in each case.
`Cc1ccc(C(=O)O)c(CC2Cc3c(C)cccc3C2=O)c1` (stereo not given): the TGI in the test on A549 NSCLC, in the test on MALME-3M melanoma, with MOLT-4 leukemia, in the test on NCI/ADR-RES ovarian, in the test with SF-295 CNS and in the test on SK-MEL-2 melanoma was greater than 100 µM each time. For the same compound, the TGI in the test with SK-MEL-5 melanoma, with SNB-19 CNS, with SR leukemia and in the test with SW-620 colon was greater than 100 µM in each case.
With `C(=C\c1cccc(/C=C/c2ccccn2)n1)/c1ccccn1`, the TGI in the test on A549 NSCLC is greater than 100 µM; with MALME-3M melanoma it was 39.9 µM; with MOLT-4 leukemia it was greater than 100 µM; with NCI/ADR-RES ovarian, greater than 100 µM; in the test on SF-295 CNS it was greater than 100 µM; with SK-MEL-2 melanoma it was greater than 100 µM. The TGI in the test on SK-MEL-5 melanoma, with SNB-19 CNS, with SR leukemia and in the test on SW-620 colon was greater than 100 µM in each case.
`N#CC(C#N)=C1C(C#N)=C(N)NC12OCCO2`: the TGI with A549 NSCLC, in the test with MALME-3M melanoma, in the test on MOLT-4 leukemia, in the test on NCI/ADR-RES ovarian, in the test on SF-295 CNS and in the test on SK-MEL-2 melanoma was greater than 100 µM each time. Moreover, the TGI in the test with SK-MEL-5 melanoma, in the test on SNB-19 CNS, in the test with SR leukemia and in the test on SW-620 colon was greater than 100 µM throughout.
Take `O=C1C=CC(=O)C(CNc2ccc(C(=O)OC34CC5CC(CC(C5)C3)C4)cc2)=C1`: the TGI in the test on A549 NSCLC is 56.9 µM; in the test with MALME-3M melanoma it was 21.4 µM; in the test on MOLT-4 leukemia, 8.34 µM; with NCI/ADR-RES ovarian, 44.1 µM; in the test on SF-295 CNS, 39.2 µM; in the test on SK-MEL-2 melanoma it was 44.3 µM. The TGI in the test on SK-MEL-5 melanoma was 16.7 µM; in the test with SNB-19 CNS it was 27.8 µM; in the test on SR leukemia it was greater than 29.3 µM; in the test with SW-620 colon, 27.4 µM.
As for `CCOC(=O)C(=[N+]=[N-])C(=O)Nc1nn2nnnc2c2ccccc12`, the TGI in the test on A549 NSCLC, with MALME-3M melanoma, with MOLT-4 leukemia, in the test on NCI/ADR-RES ovarian, in the test on SF-295 CNS and in the test on SK-MEL-2 melanoma was greater than 100 µM each time. The TGI in the test on SK-MEL-5 melanoma, in the test on SNB-19 CNS, in the test with SR leukemia and in the test with SW-620 colon was greater than 100 µM throughout.
